# ChEMBL document CHEMBL5576070, “The recent discovery of a promising pharmacological scaffold derived from carvacrol: A review” (Bioorg Med Chem Lett, 2024)
# Tests used:
# Enterococcus faecalis = assay: Antibacterial activity against Enterococcus faecalis ATCC 10541 assessed as reduction in bacterial growth incubated for 24 hrs by broth microdilution method; format: functional, organism-based; conditions: ATCC 10541, 24 h
# Streptococcus pneumoniae = assay: Antibacterial activity against Streptococcus pneumoniae assessed as reduction in bacterial cell growth inhibition by broth microdilution method; format: functional, organism-based
# Candida albicans [1] = assay: Fungicidal activity against Candida albicans assessed as reduction in fungal growth measured after 48 hrs by CLSI protocol based microdilution method; format: functional
# Bacillus subtilis [2] = assay: Antibacterial activity against Bacillus subtilis assessed as zone of inhibition; format: functional
# Clostridium perfringens = assay: Antibacterial activity against Clostridium perfringens assessed as reduction in bacterial growth inhibition; format: functional
# Escherichia coli [3] = assay: Antibacterial activity against Escherichia coli assessed as reduction in bacterial growth incubated for 24 hrs by Mueller-Hinton agar based analysis; format: functional
# Salmonella typhimurium = assay: Antibacterial activity against Salmonella typhimurium DT104 assessed as reduction in bacterial growth inhibition; format: functional, Salmonella enterica subsp. enterica serovar Typhimurium
# Escherichia coli [4] = assay: Antibacterial activity against Escherichia coli assessed as reduction in bacterial growth inhibition; format: functional
# Staphylococcus aureus [5] = assay: Antimicrobial activity against Staphylococcus aureus […] assessed as reduction in bacterial growth incubated for 24 hrs by Mueller-Hinton agar based analysis; format: functional
# Proteus vulgaris = assay: Antimicrobial activity against Proteus vulgaris NCIM 2813 assessed as zone of inhibition incubated for 24 hrs by agar diffusion method; format: functional
# Pseudomonas aeruginosa [6] = assay: Antibacterial activity against Pseudomonas aeruginosa ATCC 15442 assessed as reduction in bacterial growth incubated for 24 hrs by Mueller-Hinton agar based analysis; format: functional
# Salmonella enteritidis = assay: Antibacterial activity against Salmonella enterica subsp. enterica serovar Enteritidis assessed as reduction in bacterial growth inhibition; format: functional
# Candida albicans [7] = assay: Antifungal activity against Candida albicans assessed as reduction in fungal growth incubated for 24 hrs by broth microdilution method; format: functional
# [8] = tested on: Staphylococcus epidermidis; assay: Antimicrobial activity against Staphylococcus epidermidis ATCC 12228 assessed as reduction in bacterial growth incubated for 24 hrs by Mueller-Hinton agar based analysis; format: functional
# Escherichia coli [9] = assay: Antibacterial activity against Escherichia coli assessed as reduction in bacterial growth by broth microdilution method; format: functional
# [10] = Antioxidant activity assessed as DPPH radical scavenging activity incubated for 20 mins by spectrophotometric method; format: functional
# Bacillus subtilis [11] = assay: Antibacterial activity against Bacillus subtilis assessed as reduction in bacterial growth incubated for 20 hrs by broth microdilution assay; format: functional
# [12] = tested on: Staphylococcus epidermidis; assay: Antibacterial activity against Staphylococcus epidermidis ATCC 12228 assessed as reduction in bacterial growth incubated for 18 hrs by two fold serial microdilution method; format: functional
# Staphylococcus aureus [13] = assay: Antibacterial activity against Staphylococcus aureus ATCC 29213 assessed as bacterial growth inhibition measured after 18 hrs by CLSI protocol based two-fold serial microdilution method; format: functional
# Pseudomonas aeruginosa [14] = assay: Antibacterial activity against Pseudomonas aeruginosa ATCC 15442 assessed as bacterial growth inhibition measured after 18 hrs by CLSI protocol based two-fold serial microdilution method; format: functional
# Escherichia coli [15] = assay: Antibacterial activity against Escherichia coli ATCC 25922 assessed as reduction in bacterial growth incubated for 18 to 20 hrs by broth microdilution assay; format: functional; conditions: time 18-20 hrs
# Pseudomonas fluorescens [16] = assay: Antibacterial activity against Pseudomonas fluorescens assessed as zone of inhibition; format: functional
# Pseudomonas fluorescens [17] = assay: Antibacterial activity against Pseudomonas fluorescens assessed as reduction in bacterial growth; format: functional
# Mus musculus = assay: Antinociceptive activity in Swiss mouse assessed as reduction in pain like behavior at 0.003 mg/kg, ip and measured after 1.5 hrs by cold plate test; format: functional; set-up: scale not given: the % may be the effect or the level left
# MIA PaCa-2 = assay: Growth inhibition of human MIA PaCa-2 cells incubated for 48 hrs by SRB assay; format: functional
# HCT-15 = assay: Growth inhibition of human HCT-15 cells incubated for 48 hrs by SRB assay; format: functional
# Staphylococcus aureus [18] = assay: Synergistic antibacterial activity against Staphylococcus aureus ATCC 29213 assessed as fractional inhibitory concentration incubated for 24 hrs in the presence of ampicillin by checkerboard assay; format: functional
# Pseudomonas aeruginosa [19] = assay: Bactericidal activity against Pseudomonas aeruginosa ATCC 27853 assessed as reduction in bacterial viability; format: functional
# Pseudomonas aeruginosa [20] = assay: Antibacterial activity against Pseudomonas aeruginosa ATCC 27853 assessed as bacterial growth inhibition measured after 18 hrs by CLSI protocol based two-fold serial microdilution method; format: functional
smiles,measurement,setting,value
Cc1ccc(C(C)C)cc1OCc1cn(-c2ccc(C(=O)O)cc2)nn1,IC50,Enterococcus faecalis,15 µg/mL
same,IC50,Streptococcus pneumoniae,15 µg/mL
Cc1ccc(C(C)C)cc1O [CARVACROL],MFC,Candida albicans [1],512 µg/mL
same,inhibition zone (IZ),Bacillus subtilis [2],13 mm
same,MIC,Clostridium perfringens,<0.09 %v/v
same,MIC,Escherichia coli [3],0.6 µg/mL
same,MIC,Salmonella typhimurium,0.37 %v/v
same,MIC,Escherichia coli [4],<0.09 %v/v
same,MIC,Staphylococcus aureus [5],0.6 µg/mL
same,inhibition zone (IZ),Proteus vulgaris,7 mm
same,MIC,Pseudomonas aeruginosa [6],5 µg/mL
same,MIC,Salmonella enteritidis,<0.09 %v/v
same,MIC,Candida albicans [7],256 µg/mL
same,MIC,[8],0.3 µg/mL
same,MIC,Escherichia coli [9],450 µg/mL
same,IC50,[10],267 µg/mL
COc1cc(C(C)C)ccc1C,MIC,Bacillus subtilis [11],250 µg/mL
same,MIC,[12],0.06 µM
same,MIC,Staphylococcus aureus [13],250 µg/mL
same,MIC,Pseudomonas aeruginosa [14],0.49 µM
same,MIC,Escherichia coli [15],250 µg/mL
same,inhibition zone (IZ),Pseudomonas fluorescens [16],15 mm
same,MIC,Pseudomonas fluorescens [17],250 µg/mL
Cc1c(O)cc(C(C)C)cc1S(=O)(=O)N1CCOCC1,Activity,Mus musculus,62%
COc1cccc2c1C(=O)c1c(O)c3c(c(O)c1C2=O)C[C@@](O)(C(=O)CO)C[C@@H]3O[C@H]1C[C@H](N)[C@H](O)[C@H](C)O1.Cl [DOXORUBICIN HYDROCHLORIDE],GI50,MIA PaCa-2,80 µg/mL
same,GI50,HCT-15,80 µg/mL
Cc1cc(S(=O)(=O)Nc2ccc(F)cc2)c(C(C)C)cc1O,FIC,Staphylococcus aureus [18],0.5
Cc1cc(Cl)c(C(C)C)cc1O,MBC,Pseudomonas aeruginosa [19],6.87 µg/mL
same,MIC,Pseudomonas aeruginosa [20],3.44 µg/mL
